Assay results: ChEMBL document CHEMBL1201862, “PubChem BioAssay data set” (2004)
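In this assay, cells in 96-well plates receive the compound at five concentrations for 48 hours. Endpoints are linearly interpolated between the surrounding concentrations. GI50 = concentration required for 50% inhibition of growth.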 Activity calls are given as the source filed them. Rule as the data show it: active = GI50 up to about 1.1 µM and inactive = higher.

Columns and labels:
Assay in all cases: NCI anticancer screen, dose series, 48 h
SK-MEL-5 = test system: SK-MEL-5
ACHN = test system: ACHN
786-0 = test system: 786-0
PC-3 = test system: PC-3
MCF7 = test system: MCF7
HCC 2998 = test system: HCC 2998
MDA-MB-231 = test system: MDA-MB-231
HOP-62 = test system: HOP-62
A549 = test system: A549
T47D = test system: T47D
HT-29 = test system: HT-29
SK-MEL-2 = test system: SK-MEL-2
MDA-MB-435 = test system: MDA-MB-435
DU-145 = test system: DU-145
BT-549 = test system: BT-549
Malme-3M = test system: Malme-3M

Measured: GI50

Cc1cccc(C)c1NC(=O)Nc1ccc(S(N)(=O)=O)cc1
inactive: SK-MEL-5 > 100 µM | ACHN > 100 µM | 786-0 > 100 µM | PC-3 > 100 µM | MCF7 > 100 µM | HCC 2998 > 100 µM | MDA-MB-231 > 100 µM | HOP-62 > 100 µM | A549 > 100 µM | T47D > 100 µM | HT-29 > 100 µM | SK-MEL-2 > 100 µM | MDA-MB-435 > 100 µM | DU-145 > 100 µM | BT-549 > 100 µM | Malme-3M > 100 µM

Cc1ccc2c3c1[C@@H]1O[C@@H]1c1cccc(c1-3)[C@@H]1O[C@H]21
inactive: SK-MEL-5 15 µM | ACHN 12.7 µM | PC-3 15 µM | MCF7 4.66 µM | MDA-MB-231 18 µM | HOP-62 15.7 µM | A549 15.9 µM | T47D 3.08 µM | HT-29 6.07 µM | SK-MEL-2 16.1 µM | MDA-MB-435 14.1 µM | DU-145 11 µM | BT-549 17.9 µM | Malme-3M 15.3 µM

CN(C)C(=O)C(F)(F)C(c1ccc(Br)cc1)C1C(=O)N(C)C(=O)N(C)C1=O (configuration not stated)
inactive: SK-MEL-5 > 100 µM | ACHN > 100 µM | 786-0 > 100 µM | PC-3 > 100 µM | MCF7 > 100 µM | HCC 2998 > 100 µM | MDA-MB-231 > 100 µM | HOP-62 > 100 µM | A549 > 100 µM | T47D > 100 µM | SK-MEL-2 > 100 µM | MDA-MB-435 > 100 µM | DU-145 > 100 µM | BT-549 > 100 µM

Cc1ccc(C(=O)Cc2nc3c([nH]c2=O)c(C)nn3-c2ccccc2)c(C)c1
inactive: SK-MEL-5 > 10 µM | ACHN > 10 µM | 786-0 3.55 µM | PC-3 > 10 µM | MCF7 > 10 µM | HCC 2998 > 10 µM | MDA-MB-231 > 10 µM | HOP-62 > 10 µM | A549 6.85 µM | T47D 5.45 µM | HT-29 > 10 µM | MDA-MB-435 > 10 µM | DU-145 > 10 µM | BT-549 > 10 µM | Malme-3M > 10 µM

CCOC(=O)C1(C(F)(F)F)N=C(CC)OC(N2CCOCC2)=N1 (configuration not stated)
inactive: SK-MEL-5 > 100 µM | ACHN > 100 µM | PC-3 > 100 µM | MCF7 > 100 µM | HCC 2998 > 100 µM | MDA-MB-231 > 100 µM | A549 > 100 µM | T47D 46.6 µM | HT-29 > 100 µM | SK-MEL-2 > 100 µM | MDA-MB-435 > 100 µM | DU-145 > 100 µM | BT-549 > 100 µM

O=C(O)C(O)Cc1ccccn1 (configuration not stated)
inactive: SK-MEL-5 > 100 µM | ACHN > 100 µM | PC-3 > 100 µM | MCF7 > 100 µM | HCC 2998 > 100 µM | MDA-MB-231 > 100 µM | HOP-62 > 100 µM | A549 > 100 µM | T47D > 100 µM | HT-29 > 100 µM | SK-MEL-2 > 100 µM | MDA-MB-435 > 100 µM | DU-145 > 100 µM | BT-549 > 100 µM | Malme-3M > 100 µM

O=C(O)C(F)(F)C(F)(F)C(F)(F)C(F)(F)C(F)(F)C(F)(F)C(F)(F)C(F)(F)F
inactive: SK-MEL-5 80 µM | ACHN 65.3 µM | 786-0 83.9 µM | PC-3 42.1 µM | MCF7 57 µM | HCC 2998 86.9 µM | MDA-MB-231 46.2 µM | HOP-62 52.6 µM | A549 47.8 µM | T47D 57.3 µM | HT-29 48.2 µM | MDA-MB-435 48.3 µM | DU-145 47.6 µM | BT-549 49.1 µM | Malme-3M > 100 µM
